Patent publication US20100203587A1, “USE OF DNA GYRASE INHIBITORS FOR IN VITRO POLYPEPTIDE SYNTHESIS REACTIONS” (priority 2009, published 2010)
Read-outs that look alike come from different tables or passages of the source.

Columns and labels:
[1] = tested on: bacterial growth in lysates used for cell-free reactions; experiment: Inhibition of bacterial growth from lysate in LB medium (Example 5); type: cell-based; conditions: 20 hours; for OD595: 30° C.; for Concentration that inhibits growth: Example 5, 30° C.
Description: 20 μl of lysate was inoculated into 2 ml LB medium, which contained 0, 0.1, 0.25, 0.5, and 1 μg/mL of Norfloxacin or 0, 1, 2.5, 5, and 10 μg/ml Coumermycin A1 and was incubated at 30° C. by shaking at 300 rpm. OD595 was assayed after incubation for 20 hours.

[2] = tested on: GM-CSF yields in cell-free reactions; experiment: Cell-free protein synthesis reaction, GM-CSF yields; type: biochemical, E. coli; conditions: for Concentration with very mild impact on GM-CSF yields in cell-free reactions: FIG. 3, 60 μL scale; for Concentration without impact in cell-free reactions: GM-CSF yields
Description: In vitro protein synthesis reactions occurred in lysates generated from a population of cells. The lysate must be generated such that it would be useful for expressing proteins. E. coli A19ΔendAΔtonAΔspeAΔtnaAΔsdaAΔsdaBΔgshAΔgorTrxBHAmet^+ was used for as the extract source cell strain.
E. coli cells were grown in a 10 L Braun Biostat C fermentor. The cells were grown on 2YPTG media in batch mode with pH control at pH 7.0. The cells were harvested at 3.2 OD (595) at growth rate of >0.7 per hour. Cells were separated from the media by centrifugation at 6000 g, 4° C. for 25 min and the resulting cell paste was stored at −80° C. The cell paste was thawed at 4° C. in S30 buffer (10 mM TRIS-acetate pH 8.2 (Sigma-Aldrich Corp. St. Louis, Mo.), 14 mM magnesium acetate (Sigma-Aldrich), and 60 mM potassium acetate (Sigma-Aldrich)) at a ratio of 1 mL of buffer per 1 g of wet cell paste. Resuspended cells were passed through a high pressure homogenizer (Emulsiflex C-50, Avestin Inc., Ottawa, Ontario, Canada). The pressure drop was set at 20000 psi. The homogenized mixture was then centrifuged at 30000 g, 4° C. for 30 minutes. The procedure was repeated twice and the supernatant was retained both times. The mixture was incubated at 37° C. for 80 min in a rotary shaker. The lysate was then centrifuged at 20000 g, 4° C. for 30 minutes and supernatant was retained.
The extract was pretreated with 50 μM iodoacetamide at 21° C. for 30 min. The plasmid contained the structural gene encoding the target protein and was constructed as explained above. Amino Acids were in an equimolar mixture of all 20 native amino acids.
The 250 μL of reaction mixture is spread on the bottom of a petri dish (BD Falcon) and incubated at 30° C. in a sealed humidified incubator for 5 hours. 300 mL reaction is performed in QPlus bioreactor, 4 L in 10 L Braun Biostat C fermentor and 100 L in 200 L fermentor (Sartorius).

[3] = tested on: bacterial strains; conditions: cited from earlier work; for minimum inhibitory concentration (According to literature): Klein et al.
[4] = tested on: bacterial growth from lysate; experiment: Inhibition of bacterial growth from lysate in LB medium (Example 6); type: cell-based; conditions: 16 hours; for OD595 (cell density): 37° C.
[5] = tested on: Clostridium difficile; conditions: Clostridium difficile (Shungu et al.); cited from earlier work
[6] = tested on: hepatic nonprotein sulfhydryl groups (mainly reduced glutathione); conditions: in vivo and in vitro studies using rats (Lake et al.; Fernyhough et al.); cited from earlier work

Coumermycin A1
OD595 ([1]; 1 μg/ml): 1.7
OD595 ([1]; 2.5 μg/ml): 1.2
OD595 ([1]; 5 μg/ml): 1.1
OD595 ([1]; 10 μg/ml): 0.2
Concentration that inhibits growth [1]: 10 µg/mL
Concentration with very mild impact on GM-CSF yields in cell-free reactions [2]: 10 µg/mL
Concentration without impact in cell-free reactions [2]: 10 µg/mL
Concentration that inhibits growth (According to literature) ([3]; some strains tested (Hooper et al.)): 2 to 8 µg/mL

O=C(O)c1cn(C2CC2)c2cc(N3CCNCC3)c(F)cc2c1=O [Ciprofloxacin]
Concentration that inhibits growth ([4]; Example 6, 37° C.): 1 µg/mL
minimum inhibitory concentration (According to literature) [3]: 1 (1) μg/ml
minimum inhibitory concentration (According to literature) ([3]; listed as ciprofloxacin): about 1 μg/ml

CCn1cc(C(=O)O)c(=O)c2cc(F)c(N3CCNCC3)cc21 [Norfloxacin]
OD595 ([1]; 0.1 μg/ml): 1.8
OD595 ([1]; 0.25 μg/ml): 1.3
OD595 ([1]; 0.5 μg/ml): 1.2
OD595 ([1]; 1 μg/ml): 0.06
Concentration that inhibits growth [1]: 1 µg/mL
Concentration with very mild impact on GM-CSF yields in cell-free reactions [2]: up to 2.5 μg/ml
Concentration without impact in cell-free reactions [2]: 2.5 µg/mL
Concentration that inhibits growth (According to literature) ([3]; most gastrointestinal strains tested (Shungu et al.)): 0.008 to 1 µg/mL
inhibitory concentration (literature) [5]: 1 to 128 µg/mL

CO[C@@H]1[C@@H](OC(N)=O)[C@@H](O)[C@H](Oc2ccc3c(O)c(NC(=O)c4ccc(O)c(CC=C(C)C)c4)c(=O)oc3c2C)OC1(C)C [Novobiocin]
OD595 (cell density) ([4]; 10 μg/ml): 0.003
OD595 (cell density) ([4]; 25 μg/ml): 0.17
OD595 (cell density) ([4]; 50 μg/ml): 0.08
OD595 (cell density) ([4]; 100 μg/ml): 0.1
OD595 (cell density) ([4]; 200 μg/ml): 0.13
Concentration that negatively impacts GM-CSF yields in cell-free reactions ([2]; FIG. 5): ≥ 10 µg/mL
Concentration that inhibits growth (According to literature) ([3]; different bacterial strains (Smith and Davis)): 100 to 300 µg/mL
Effect on hepatic nonprotein sulfhydryl groups (mainly reduced glutathione) [6]: depletion of hepatic nonprotein sulfhydryl groups
